From US20160089371A1, “Combination of Kinase Inhibitors and Uses Thereof” (INTELLIKINE, LLC, priority 2013, published 2016)
Where two headings read alike, the source gives them in different places.

Key:
PC3 = PC3 proliferation; type: cell-based; details: Homo sapiens, PC-3; PC3 cell line (compounds before 438)
T47D = T47D proliferation; type: cell-based; details: Homo sapiens; T47D cell line
PI3K δ = PI3K δ (Homo sapiens, UniProt O00329); assay: PI 3-Kinase (human) HTRF assay, p110δ/p85α
PI3K β = PI3K β (Homo sapiens, UniProt P42338); assay: PI 3-Kinase (human) HTRF assay, p110β/p85α
Chain of PI3K β (P42338 whole entry): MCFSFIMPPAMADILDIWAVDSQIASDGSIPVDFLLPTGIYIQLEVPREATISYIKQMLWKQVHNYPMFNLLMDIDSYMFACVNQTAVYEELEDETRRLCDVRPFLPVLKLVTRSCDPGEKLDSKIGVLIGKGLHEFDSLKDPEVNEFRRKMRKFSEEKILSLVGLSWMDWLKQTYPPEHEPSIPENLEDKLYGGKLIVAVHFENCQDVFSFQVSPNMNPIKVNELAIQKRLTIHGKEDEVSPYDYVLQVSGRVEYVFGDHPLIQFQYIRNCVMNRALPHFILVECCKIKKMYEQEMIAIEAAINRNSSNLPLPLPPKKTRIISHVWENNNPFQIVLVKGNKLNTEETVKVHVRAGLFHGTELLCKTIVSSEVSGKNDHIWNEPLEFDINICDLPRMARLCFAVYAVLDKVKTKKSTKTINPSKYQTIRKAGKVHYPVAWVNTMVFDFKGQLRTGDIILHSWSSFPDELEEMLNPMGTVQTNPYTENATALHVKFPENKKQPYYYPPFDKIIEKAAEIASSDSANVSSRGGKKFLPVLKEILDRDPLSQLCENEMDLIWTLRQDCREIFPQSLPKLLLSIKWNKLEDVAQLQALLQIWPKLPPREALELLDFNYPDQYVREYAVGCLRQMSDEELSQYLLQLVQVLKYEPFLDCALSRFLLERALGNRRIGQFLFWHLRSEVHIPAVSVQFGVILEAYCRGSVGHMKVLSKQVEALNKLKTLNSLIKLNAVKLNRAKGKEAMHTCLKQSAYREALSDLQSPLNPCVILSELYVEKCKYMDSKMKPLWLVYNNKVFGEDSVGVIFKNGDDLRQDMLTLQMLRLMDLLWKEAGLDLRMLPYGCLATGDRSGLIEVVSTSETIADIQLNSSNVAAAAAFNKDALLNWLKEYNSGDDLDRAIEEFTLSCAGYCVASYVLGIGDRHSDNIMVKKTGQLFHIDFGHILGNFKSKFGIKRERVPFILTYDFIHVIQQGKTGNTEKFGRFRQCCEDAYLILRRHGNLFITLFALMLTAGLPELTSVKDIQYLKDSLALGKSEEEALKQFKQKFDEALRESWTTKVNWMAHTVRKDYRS
Chain of PI3K β (P27986 whole entry partner): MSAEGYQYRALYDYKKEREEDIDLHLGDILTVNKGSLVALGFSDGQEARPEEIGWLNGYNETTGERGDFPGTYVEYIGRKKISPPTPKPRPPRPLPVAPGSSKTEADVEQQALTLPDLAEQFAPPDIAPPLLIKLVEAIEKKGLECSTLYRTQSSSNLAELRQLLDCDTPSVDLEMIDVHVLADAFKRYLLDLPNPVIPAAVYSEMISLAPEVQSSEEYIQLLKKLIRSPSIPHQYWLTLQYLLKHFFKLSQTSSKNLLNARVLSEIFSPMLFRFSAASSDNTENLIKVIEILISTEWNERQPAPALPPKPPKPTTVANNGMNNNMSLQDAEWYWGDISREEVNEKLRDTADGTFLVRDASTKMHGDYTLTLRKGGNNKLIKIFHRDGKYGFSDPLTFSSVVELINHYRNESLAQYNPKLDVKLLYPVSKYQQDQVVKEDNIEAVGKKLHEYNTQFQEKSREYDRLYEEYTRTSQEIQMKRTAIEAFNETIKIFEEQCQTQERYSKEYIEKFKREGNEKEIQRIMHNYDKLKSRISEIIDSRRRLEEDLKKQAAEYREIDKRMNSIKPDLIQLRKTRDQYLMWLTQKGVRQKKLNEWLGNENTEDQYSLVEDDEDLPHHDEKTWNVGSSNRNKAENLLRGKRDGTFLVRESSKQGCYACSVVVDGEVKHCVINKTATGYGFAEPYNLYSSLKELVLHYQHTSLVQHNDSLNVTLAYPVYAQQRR

PI3K γ = PI3K γ (Homo sapiens, UniProt P48736); assay: PI 3-Kinase (human) HTRF assay, p110γ
Chain of PI3K γ (P48736 whole entry): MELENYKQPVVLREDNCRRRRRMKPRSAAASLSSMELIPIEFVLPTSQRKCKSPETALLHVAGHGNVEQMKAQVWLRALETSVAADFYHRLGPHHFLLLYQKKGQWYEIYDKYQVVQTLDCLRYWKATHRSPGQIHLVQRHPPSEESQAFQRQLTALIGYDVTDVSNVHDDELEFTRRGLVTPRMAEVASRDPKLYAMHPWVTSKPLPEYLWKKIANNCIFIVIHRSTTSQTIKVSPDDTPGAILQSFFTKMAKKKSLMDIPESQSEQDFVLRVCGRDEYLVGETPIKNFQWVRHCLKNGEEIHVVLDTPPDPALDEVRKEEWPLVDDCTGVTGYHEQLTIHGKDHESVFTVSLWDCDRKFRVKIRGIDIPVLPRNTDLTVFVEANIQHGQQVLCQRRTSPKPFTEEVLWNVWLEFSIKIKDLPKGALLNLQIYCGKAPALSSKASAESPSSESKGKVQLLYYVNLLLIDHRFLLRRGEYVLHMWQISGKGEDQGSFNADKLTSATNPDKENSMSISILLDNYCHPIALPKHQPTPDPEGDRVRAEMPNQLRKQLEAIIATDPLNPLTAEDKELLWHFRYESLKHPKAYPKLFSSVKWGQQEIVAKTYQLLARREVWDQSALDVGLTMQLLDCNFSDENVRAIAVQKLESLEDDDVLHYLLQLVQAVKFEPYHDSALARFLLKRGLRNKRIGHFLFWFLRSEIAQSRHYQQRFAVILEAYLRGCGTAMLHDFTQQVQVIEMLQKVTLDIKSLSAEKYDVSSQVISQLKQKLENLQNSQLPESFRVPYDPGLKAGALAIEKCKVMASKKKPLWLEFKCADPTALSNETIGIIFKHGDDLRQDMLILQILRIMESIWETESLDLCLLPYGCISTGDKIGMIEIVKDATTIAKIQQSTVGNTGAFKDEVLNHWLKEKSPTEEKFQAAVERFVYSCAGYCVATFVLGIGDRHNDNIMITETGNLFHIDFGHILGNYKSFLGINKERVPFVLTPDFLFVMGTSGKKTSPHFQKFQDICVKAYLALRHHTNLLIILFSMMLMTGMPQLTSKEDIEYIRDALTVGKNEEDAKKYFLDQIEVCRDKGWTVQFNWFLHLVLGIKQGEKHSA

PI3K α = PI3K α (Homo sapiens, UniProt P42336); assay: PI 3-Kinase (human) HTRF assay, p110α/p85α
Chain of PI3K α (P42336 whole entry): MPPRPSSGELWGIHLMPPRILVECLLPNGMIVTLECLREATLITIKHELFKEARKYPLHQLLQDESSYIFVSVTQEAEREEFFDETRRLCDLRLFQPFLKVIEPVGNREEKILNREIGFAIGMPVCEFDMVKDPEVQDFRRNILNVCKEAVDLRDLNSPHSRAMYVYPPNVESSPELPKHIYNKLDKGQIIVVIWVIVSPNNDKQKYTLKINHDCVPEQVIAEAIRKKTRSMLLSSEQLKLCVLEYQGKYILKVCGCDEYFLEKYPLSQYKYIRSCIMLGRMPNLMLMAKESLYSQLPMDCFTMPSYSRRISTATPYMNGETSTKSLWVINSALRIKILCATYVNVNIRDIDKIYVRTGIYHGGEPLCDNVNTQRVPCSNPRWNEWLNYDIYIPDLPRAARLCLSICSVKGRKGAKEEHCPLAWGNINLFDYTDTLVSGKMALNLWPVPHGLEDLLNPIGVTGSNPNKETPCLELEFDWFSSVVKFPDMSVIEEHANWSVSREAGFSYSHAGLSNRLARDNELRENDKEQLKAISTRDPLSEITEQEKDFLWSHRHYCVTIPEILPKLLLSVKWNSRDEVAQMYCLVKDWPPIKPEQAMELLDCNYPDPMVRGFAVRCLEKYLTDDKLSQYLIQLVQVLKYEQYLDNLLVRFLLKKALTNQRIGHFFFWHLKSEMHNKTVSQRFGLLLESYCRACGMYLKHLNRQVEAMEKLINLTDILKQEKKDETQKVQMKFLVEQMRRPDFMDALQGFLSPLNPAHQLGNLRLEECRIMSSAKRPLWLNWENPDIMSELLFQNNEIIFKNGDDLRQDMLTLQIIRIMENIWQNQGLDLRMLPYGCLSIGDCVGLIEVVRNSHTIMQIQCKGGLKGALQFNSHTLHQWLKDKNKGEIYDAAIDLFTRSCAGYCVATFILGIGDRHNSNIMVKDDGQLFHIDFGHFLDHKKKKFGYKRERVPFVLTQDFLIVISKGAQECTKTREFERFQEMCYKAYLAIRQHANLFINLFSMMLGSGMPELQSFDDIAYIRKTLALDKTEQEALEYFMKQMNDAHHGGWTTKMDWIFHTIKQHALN
Chain of PI3K α (P27986 whole entry partner): as the sequence (P27986 whole entry partner) above

mTOR = target: T1, mTOR (Homo sapiens, UniProt P42345); assay: Inhibition assay of mTOR (radiometric or LanthaScreen TR-FRET); type: biochemical; details: read-out: mTORC IC50
T1 construct: purchased Invitrogen

MDA-MB-361 = MDA-MB-361 proliferation; type: cell-based; details: Homo sapiens
[1] = system: MDA-MB-361 (PI3Kα/HER2 carcinoma) tumors; assay: In vivo efficacy in xenogenic mouse model of breast cancer; design: species or system nude mice; details: 70 mg/kg Pan-PI3K inhibitor; 60 mg/kg compound A
Experimental: Blood glucose was monitored periodically following administration of treatment.
Treatment of tumors (MDA-MB-361) with compounds was discontinued on Day 30. Tumors were measured every 2-5 days.

B cell function = B cell function in vivo, antibody production after TNP-Ficoll immunization; details: mice immunized with TNP-Ficoll; 70 mg/kg GDC0941; 30, 60 or 120 mg/kg Compound A; 7 days; FIG. 8
Experimental: Mice were immunized with TNP-Ficoll and treated with 1) vehicle; 2) 70 mg/kg GDC0941; 3) 30 mg/kg Compound A; 4) 60 mg/kg Compound A; or 5) 120 mg/kg Compound A for 7 days. Antibody production was measured as a percentage of control group that were treated with vehicle.

[2] = system: anti-TNP antibody production (B cell function); assay: TNP-Ficoll T-cell independent B-cell activation assay; type: in vivo, mice; details: 70 mg/kg GDC0941; 30, 60 or 120 mg/kg Compound A; 7 days
Experimental: To test the effects of the compounds of the present invention in suppressing T cell independent antibody production, the TNP-Ficoll B-cell activation assay is used as described herein. Compounds of the present invention are dissolved in an appropriate vehicle (e.g. 5% 1-methyl-2-pyrrolidinone, 85% polyethylene glycol 400, 10% Solutor). Compounds are administered orally approximately lhr before TNP-Ficoll treatment to 4-10 week old mice. To study the effects of the compounds on B-cell activation, one set of mice are grouped according to the following table:
Four animals in group 1, and eight animals in groups 2 to 7 are euthanized in CO2 2 hours after the last compound administration on day 7. […]
Serum samples are analyzed for anti-TNP antibody titers by ELISA as described herein. […] HRP substrate (200 μl ABTS solution+30% H2O2+10 ml citrate buffer) is added to each well at 100 μl/well, incubated 2-20 minutes in the dark and the amount of anti-TNP IgG3 is determined spectrophotometrically at 405 nm. Similarly, anti-TNP IgM and total anti-TNP Ab are determined using anti-mouse IgM-HRP and anti-mouse Ig-HRP respectively.
Antibody production was measured using ELISA and plotted as a percentage of control group that were treated with vehicle.

marginal zone B cells = assay: Marginal zone B cells in mouse spleen (FACS); details: 70 mg/kg Pan-PI3K inhibitor; 60 mg/kg Compound A; spleens 2 hrs after last dose

Chain of PI3K δ (O00329 whole entry): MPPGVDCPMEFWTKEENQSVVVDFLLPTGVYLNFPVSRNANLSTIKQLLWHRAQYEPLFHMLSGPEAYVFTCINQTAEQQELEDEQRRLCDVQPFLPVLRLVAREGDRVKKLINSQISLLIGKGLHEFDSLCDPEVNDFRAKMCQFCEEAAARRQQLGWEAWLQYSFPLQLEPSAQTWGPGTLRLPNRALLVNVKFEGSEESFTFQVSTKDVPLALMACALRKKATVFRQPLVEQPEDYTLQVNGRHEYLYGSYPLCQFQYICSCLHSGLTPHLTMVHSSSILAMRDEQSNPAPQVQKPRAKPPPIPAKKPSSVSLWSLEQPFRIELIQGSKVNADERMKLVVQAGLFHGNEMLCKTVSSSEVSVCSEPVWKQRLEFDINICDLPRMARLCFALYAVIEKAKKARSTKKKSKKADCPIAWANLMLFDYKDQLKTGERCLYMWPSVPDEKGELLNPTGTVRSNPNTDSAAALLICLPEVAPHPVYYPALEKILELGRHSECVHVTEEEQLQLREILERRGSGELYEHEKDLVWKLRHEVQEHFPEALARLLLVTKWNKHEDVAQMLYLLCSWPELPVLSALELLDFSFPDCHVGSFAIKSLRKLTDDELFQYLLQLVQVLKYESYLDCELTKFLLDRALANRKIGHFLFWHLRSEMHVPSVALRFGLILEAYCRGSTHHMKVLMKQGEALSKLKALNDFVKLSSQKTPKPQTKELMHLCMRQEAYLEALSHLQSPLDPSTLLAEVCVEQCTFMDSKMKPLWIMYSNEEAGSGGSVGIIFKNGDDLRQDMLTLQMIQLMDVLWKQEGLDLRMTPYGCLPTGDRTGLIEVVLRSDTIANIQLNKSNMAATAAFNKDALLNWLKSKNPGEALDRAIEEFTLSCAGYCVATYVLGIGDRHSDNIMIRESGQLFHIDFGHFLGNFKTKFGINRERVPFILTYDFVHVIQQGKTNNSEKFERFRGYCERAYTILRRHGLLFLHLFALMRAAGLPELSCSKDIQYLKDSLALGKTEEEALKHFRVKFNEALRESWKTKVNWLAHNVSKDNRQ
Chain of PI3K δ (P27986 whole entry partner): as the sequence (P27986 whole entry partner) above

Row | SMILES | IC50 (PI3K δ) | IC50 (PI3K β) | IC50 (PI3K γ) | further results
1 | Nc1nc2cc(-c3ccc4nccc(-c5ccncc5)c4c3)ccc2o1 [Compound 1] | – | – | – | IC50 (PC3): < 1000 nM; IC50 (T47D): < 1000 nM
2 | CN1CCC(N(C)c2ncnc3ccc(-c4ccc5oc(N)nc5c4)cc23)CC1 [Compound 155] | – | – | < 1000 nM | –
3 | CC1CN(C(=O)c2cnc3ccc(-c4ccc5oc(N)nc5c4)cn23)CCN1 (centres unmarked) [Compound 164] | – | – | – | IC50 (T47D): < 1000 nM
4 | CN1CCC(NC(=O)c2cnc3ccc(-c4ccc5oc(N)nc5c4)cn23)CC1 [Compound 203] | < 1000 nM | < 100 nM | < 100 nM | –
5 | CN1CCN(CCNC(=O)c2cnc3ccc(-c4ccc5oc(N)nc5c4)cn23)CC1 [Compound 306] | – | – | < 1000 nM | –
6 | Nc1nc2cc(-c3ccn4ncc(C(=O)N5CCOCC5)c4c3)cc(Cl)c2o1 [Compound 359] | < 10000 nM | < 1000 nM | < 100 nM | IC50 (PI3K α): < 100 nM
7 | CN1CCN([C@@H]2CCN(c3cnc4ccc(-c5ccc6oc(N)nc6c5)cc4n3)C2)CC1 [Compound 379] | – | – | – | IC50 (mTOR): > 10000 nM
8 | O=C(c1cnc2ccc(-c3ccc(Cl)c(NS(=O)(=O)c4ccc(F)cc4F)c3)cn12)N1CCOCC1 [Compound 461] | – | – | < 1000 nM | –
9 | Nc1nc2cc(-c3ccc4ncc(C(=O)N5CC(N6CC[C@@H](O)C6)C5)n4c3)ccc2o1 [Compound 470] | > 10000 nM | > 10000 nM | < 100 nM | –
10 | Nc1nc2cc(-c3ccc4ncc(C(=O)N5CC[C@H](n6cccn6)C5)n4c3)ccc2o1 [Compound 478] | – | – | – | PI3K δ IC50 (nM) (PI3K δ): +++ +++
11 | O=C(c1cnc2ccc(-c3ccc4c(Nc5ccccc5)noc4c3)cn12)N1CCOCC1 [Compound 509] | < 1000 nM | < 10000 nM | < 10000 nM | IC50 (MDA-MB-361; PC-3, read-out: PC3 proliferation (nM)*): < 10000 nM; IC50 (PI3K α): < 100 nM
12 | [2H]c1c(-c2ccc3ncc(C(=O)N4CCOCC4)n3c2)c([2H])c2nc(N)oc2c1[2H] [Compound 531] | – | – | < 100 nM | –
13 | CN1CCN(c2cnc3ccc(-c4ccc5nc(N)oc5c4)cn23)CC1 [Compound 542] | > 10000 nM | > 10000 nM | > 10000 nM | IC50 (PI3K α): > 10000 nM
14 | Nc1nc2cc(-c3ccc4ncc(N5CC(N6CCOCC6)C5)nc4n3)ccc2o1 [Compound 604] | – | < 10000 nM | < 1000 nM | IC50 (mTOR; Table 4, PI3K α inhibitors): > 10000 nM
15 | CS(=O)(=O)N1CCN(Cc2cc3nc(-c4cccc5[nH]ncc45)nc(N4CCOCC4)c3s2)CC1 [Pan-PI3K inhibitor, GDC0941, reference compound] | – | – | – | tumor weight in breast cancer model (FIG. 9 left panel) [1]: reduction in tumor weight; B cell function in vivo (antibody production, percentage of vehicle control) (B cell function): blocks B cell function; B cell function in vivo, antibody production after TNP-Ficoll (FIG. 8) [2]: blocks B cell function in vivo; presence (localization/viability) of marginal zone B cells in mouse spleen (FIG. 9 right panel) (marginal zone B cells): reduced presence of MZB cells

Further lines, with some results ahead:

Row | IC50 (PI3K δ) | IC50 (PI3K β) | IC50 (PI3K γ) | SMILES | further results
16 | < 100 nM | < 10000 nM | < 100 nM | Nc1nc2cc(-c3ccc4ncc(N[C@H]5CC[C@H](O)CC5)nc4c3)ccc2o1 [Compound 128] | IC50 (PI3K α): < 100 nM
17 | < 10000 nM | < 100 nM | – | Nc1nc2cc(-c3ccc4ncc(N5CCNC(=O)C5)nc4c3)ccc2o1 [Compound 135] | –
18 | – | – | < 10000 nM | Nc1nc2cc(-c3ccc4ncc(N5CCC(N)CC5)nc4c3)ccc2o1 [Compound 168] | –
19 | – | – | < 10000 nM | CC(C)[C@H](N)C(=O)N1CCN(c2cnc3ccc(-c4ccc5oc(N)nc5c4)cc3n2)CC1 [Compound 269] | –
20 | – | – | < 1000 nM | CC(C)[C@@H](N)C(=O)N1CCN(c2cnc3ccc(-c4ccc5oc(N)nc5c4)cc3n2)CC1 [Compound 270] | –
21 | – | – | < 1000 nM | C[C@H]1CN(c2cnc3ccc(-c4ccc5oc(N)nc5c4)cc3n2)CCN1C [Compound 332] | –
22 | < 10000 nM | – | < 100 nM | Nc1nc2cc(-c3ccc4ncc(N5CC[C@H](N6CCOCC6)C5)nc4c3)ccc2o1 [Compound 375] | –
23 | < 10000 nM | – | < 1000 nM | Nc1nc2cc(-c3ccc4ncc(C(=O)N5CC[C@H](F)C5)n4c3)ccc2o1 [Compound 476] | –
24 | < 10000 nM | – | < 100 nM | Nc1nc2cc(-c3ccc4ncc(-c5cccnc5)nc4n3)ccc2o1 [Compound 567] | IC50 (MDA-MB-361; MDA-MB-361 cells, Table 4, read-out: MDA-MB-361 proliferation (nM)*): > 10000 nM; IC50 (PI3K α): < 100 nM
